Usually EC50 stands for the concentration that produces a half-maximal response.

The first assay concerns the target T1, chimeric human/mouse GPR119 (Homo sapiens, UniProt Q8TDV5, A235T/C313R/C323Y/E253K/F304I/F307L/G211A/G245S/H255C/K284R/L224V/L258Q/L288Q/L301F/P218V/P318T/Q252H/R262K/S214P/S219N/S228A/S309P/S322A/T217S/T239S/V227I/V300F).
T1 construct: the first 198 amino acids of human GPR119; the C-terminal 137 amino acids of the mouse receptor; expressed in transfected cells
T1 sequence (Q8TDV5 with tags, fused parts or gaps G211A/S214P/T217S/P218V/S219N/L224V/V227I/S228A/A235T/T239S/G245S/Q252H/E253K/H255C/L258Q/R262K/K284R/L288Q/V300F/L301F/F304I/F307L/S309P/C313R/P318T/S322A/C323Y): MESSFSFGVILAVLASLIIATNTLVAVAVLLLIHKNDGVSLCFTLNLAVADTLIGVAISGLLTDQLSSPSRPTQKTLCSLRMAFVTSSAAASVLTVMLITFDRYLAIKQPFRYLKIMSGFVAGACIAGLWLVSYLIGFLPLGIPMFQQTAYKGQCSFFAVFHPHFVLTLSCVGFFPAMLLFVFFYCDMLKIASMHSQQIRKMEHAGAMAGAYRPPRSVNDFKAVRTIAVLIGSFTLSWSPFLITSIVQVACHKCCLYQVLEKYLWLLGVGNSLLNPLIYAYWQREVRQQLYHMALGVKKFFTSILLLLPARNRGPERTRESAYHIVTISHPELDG
Nature of the assay: Tet-inducible cAMP assay (cAMP accumulation, HTRF).
Conditions: not given
It is filed as cell-based. How it is done:
The in vitro modulation of recombinant human GPR119 was determined as follows.
A human-mouse chimeric GPR119 expression construct encoding 3 copies of the FLAG epitope tag, the first 198 amino acids of human GPR119 and the C-terminal 137 amino acids of the mouse receptor was cloned into a tetracycline inducible vector pcDNA5/FRT/TO (Invitrogen #V6520-20), which includes a hygromycin-resistance marker. Tightly controlled receptor expression was achieved by stable integration of this construct into the genome of a specific host cell line, Flp-In-T-Rex-HEK293, expressing the tetracycline repressor (Invitrogen). Once a stable hygromycin-resistant cell line was generated, the cells were maintained at 37° C. in a humidified 5% CO2 atmosphere in culture medium consisting of Dulbecco's modified Eagle's medium (DMEM; Invitrogen #11960) supplemented with 2 mM L-glutamine, 10% fetal bovine serum, 200 μg/ml hygromycin B, and 15 μg/ml blasticidin.
Forty-eight hours prior to the cAMP accumulation assay, cells stably expressing the chimeric human/mouse GPR119 construct were seeded at a density of 4×10^3 cells/well in 384 well poly-D-lysine coated solid white plates (BD #35-6661) and grown at 37° C. in a humidified 5% CO2 atmosphere in culture medium supplemented with 1 μg/ml tetracycline to induce expression of the receptor. On the day of the assay, medium was removed and cells were incubated for 50 min. at 37° C. in a humidified 5% CO2 atmosphere in 20 μl/well of assay buffer (phosphate-buffered saline with Ca^2+ and Mg^2+, 12 mM glucose, 0.1 mM isobutyl-methyl-xanthine, 0.1% fatty-acid free bovine serum albumin) with the desired concentration of compound added from a concentrated stock dissolved in dimethyl sulfoxide (DMSO) to give a final concentration of 1% DMSO in the assay. cAMP accumulation was measured using the CisBio homogeneous time resolved fluorescence (HTRF) assay kit (#62AM2PEC) following the manufacturer's protocol. Briefly, 10 μl each of the cAMP-HTRF fluorescence detection reagents were added to each well, and the samples were incubated for 40 min. at room temperature. Fluorescence was excited at 320 nm and measured at 665 and 620 nm using the Envision instrument (Perkin Elmer), the fluorescence ratio of 665/620 was calculated and converted to nanomolar concentrations of cAMP in each well by interpolation from a cAMP standard curve. The concentration-response curves and EC50 values were calculated with a four parameter logistic curve fit equation utilizing Excel/XLfit software (Microsoft and IDBS). The EC50 value was calculated as the concentration of agonist which increased the cAMP concentration to a value halfway between the baseline and the maximum.
Compounds of the present invention were tested in the Tet-inducible cAMP assay described immediately above and the results shown in Table 2 below were obtained.
`CCCc1cnc(N2CCC(C3Cc4cc(C5=CCN(S(=O)(=O)CCC)CC5)cc(F)c4O3)CC2)nc1` (racemic) [Example 5, (±)-2-(4-(7-Fluoro-5-(1-(propylsulfonyl)-1,2,3,6-tetrahydropyridin-4-yl)-2,3-dihydrobenzofuran-2-yl)piperidin-1-yl)-5-propylpyrimidine] showed an EC50 of 61.8 nM. `CCCc1cnc(N2CCC(C3Cc4cc(C5=CCN(S(=O)(=O)CCCCO)CC5)cc(F)c4O3)CC2)nc1` (stereo not drawn) [Example 4, 4-(4-(7-Fluoro-2-(1-(5-propylpyrimidin-2-yl)piperidin-4-yl)-2,3-dihydrobenzofuran-5-yl)-5,6-dihydropyridin-1(2H)-ylsulfonyl)butan-1-ol]: the response was half-maximal at 168 nM (EC50). `CCCc1cnc(N2CCC(C3Cc4cc(N5CCN(S(=O)(=O)CCC)CC5)ccc4O3)CC2)nc1` (stereo not drawn) [Example 9, 5-Propyl-2-(4-(5-(4-(propylsulfonyl)piperazin-1-yl)-2,3-dihydrobenzofuran-2-yl)piperidin-1-yl)pyrimidine] showed a 50% effective concentration (EC50) of 1060 nM. Still for that read-out and setting: the result for `CCCS(=O)(=O)N1CC=C(c2ccc3c(c2)CC(C2CCN(C(=O)OC4CCCCC4)CC2)O3)CC1` (stereo not drawn) [Example 44] reads 9.7 nM.

The same assay, now with this note: Flp-In-T-Rex-HEK293 cells, tetracycline-induced receptor expression; cAMP accumulation after 50 min at 37° C.; read-out: GPR119 EC50.
For the compound `CC1(C2CCN(c3ncc(C4CC4)cn3)CC2)Cc2cc(C3=CCN(S(=O)(=O)CCCCO)CC3)ccc2O1` (stereo not drawn) [Example 11, 4-(4-(2-(1-(5-Cyclopropylpyrimidin-2-yl)piperidin-4-yl)-2-methyl-2,3-dihydrobenzofuran-5-yl)-5,6-dihydropyridin-1(2H)-ylsulfonyl)butan-1-ol], the EC50 came out at 8.9 nM.

`CCCS(=O)(=O)N1CCC(C2Cc3cc(C4=CCN(S(C)(=O)=O)CC4)ccc3O2)CC1` (stereo not drawn) [Example 21]: the EC50 turned out to be 2430 nM. Still for that read-out and setting: for `CCCS(=O)(=O)N1CC=C(c2cc(F)c3c(c2)CC(C2CCN(c4ncc(Cl)cn4)CC2)O3)CC1` (stereo not drawn) [Example 39] the value was 3.1 nM. `CC(C)CS(=O)(=O)N1CC=C(c2cc(F)c3c(c2)CC(C2CCN(c4ncc(Cl)cn4)CC2)O3)CC1` (stereo not drawn) [Example 40]: the EC50 is 3.4 nM.

For the compound `CCCS(=O)(=O)N1CC=C(c2ccc3c(c2)CC(C2CCN(c4ccc(Cl)cn4)CC2)O3)CC1` (stereo not drawn) [Example 41], the EC50 came to 82.7 nM.

The values are drawn from patent publication US8729084B2, “Benzofuranyl analogues as GPR119 modulators” (Bristol-Myers Squibb Company, priority 2010, dated 2014).
